Measurements as given in patent US20080125475A1 (priority 2006, published 2008).
Where two headings read alike, the source gives them in different places.

How the values were obtained:
Sprague-Dawley rats [1] = assay: animal or person; assay type: in vivo; details: Rattus norvegicus, iv, read-out: ED50 acute
mice = details: mouse, in vivo
ORL1 receptor = biological target: T1, ORL1 receptor (Homo sapiens, UniProt P41146); assay: biochemical; assay type: binding
T1 construct: expressed in transfected cells; host or cells: CHO (recombinant CHO-ORL1 cells), membranes

Sprague-Dawley rats [2] = assay: animal or person; assay type: in vivo, rat; details: iv

T1 sequence (P41146 whole entry): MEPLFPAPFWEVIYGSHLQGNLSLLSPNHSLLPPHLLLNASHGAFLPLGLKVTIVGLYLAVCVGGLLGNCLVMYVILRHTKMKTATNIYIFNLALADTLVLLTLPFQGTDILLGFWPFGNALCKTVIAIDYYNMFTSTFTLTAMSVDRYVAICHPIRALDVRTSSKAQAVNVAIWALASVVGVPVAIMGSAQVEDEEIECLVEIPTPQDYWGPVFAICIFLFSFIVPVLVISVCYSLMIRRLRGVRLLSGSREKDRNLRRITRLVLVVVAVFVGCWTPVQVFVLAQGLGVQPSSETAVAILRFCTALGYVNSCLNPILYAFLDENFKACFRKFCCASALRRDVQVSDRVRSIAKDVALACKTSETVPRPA

## CCC(=O)C(C[C@@H](C)N(C)C)(c1ccccc1)c1ccccc1 [Compound B7, L-methadone]
Sprague-Dawley rats [1]
  ED50: 0.21 mg/kg
mice
  naloxone-induced withdrawal jumping: reduced in comparison with B1-B4 but is still significant
ORL1 receptor
  Ki: > 1 µM
Sprague-Dawley rats [2]; Rattus norvegicus, read-out: ED50 chronic
  ED50: 0.49 mg/kg
Sprague-Dawley rats [2]; rat, in vivo
  Enhancement of action factor: 0.4x
